US20050038113A1, “Valproic acid and derivatives for the combinatorial therapeutic treatment of human cancers and for the treatment of tumor metastasis and minimal residual disease” (G2M Cancer Drugs AG, priority 2001, published 2005)

Key:
[1] = tested on: control cells (lin-, PINCO empty vector or uninfected); assay: myeloid differentiation (Mac-1, FACS) of transduced hematopoietic progenitors; format: cell-based, Murine
Protocol: Murine hematopoietic progenitors (lin-) were transduced with a retroviral vector encoding PML-RAR, and GFP as a marker. […] Myeloid differentiation was scored by analyzing the presence of the differentiation marker Mac-1.
Murine hematopoietic progenitors were purified from the bone marrow of 129 mice on the basis of the absence of lineage differentiation markers (lin-). Lin- cells were grown for 48 hours in the presence of IL-3 (20 ng/ml), IL-6 (20 ng/ml), SCF (100 ng/ml), and then attached to non-tissue culture treated plates coated with Retronectin (Takara-Shuzo). Cells were then transduced by incubation with the supernatant from Phoenix ecotropic packaging cells (supplemented with fresh serum, and IL-3, IL-6, and SCF as above), transiently transfected with the control retroviral vector PINCO, or PINCO-PML-RAR. After 60 hours, GFP+cells were sorted by FACS, and seeded in methylcellulose plates supplemented as above, plus G-CSF (60 ng/ml) and GM-CSF (20 ng/ml). […] After 8-10 days, cells were analyzed for the presence of the myeloid differentiation marker Mac-1 by FACS. […] Uninfected cells, and cells infected with the control PINCO vector behaved identically (data not shown).
For FIG. 11 Lin- cells were transduced with the indicated vectors (control: PINCO, empty vector encoding GFP alone), and GFP+cells were sorted by FACS. […] Differentiation was assessed after 8-10 days by analysis of the myeloid differentiation marker Mac-1.

[2] = tested on: PML-RAR expressing murine hematopoietic progenitors (lin-); assay: as above; format: cell-based; settings: VPA 1 mM with cytokines (IL3, IL6, SCF, G-CSF, GM-CSF), 8-10 days
[3] = tested on: wild-type cells (hematopoietic progenitor cells); assay: X-ray sensitivity, colonies in methylcellulose; format: cell-based, Murine; settings: VPA 1 mM, X-ray 2 Gy
Protocol: Lin- cells were transduced as described for FIG. 11 (see also methods in example 10 for details), and sorted by FACS. 12 hours after sorting, cells were washed with PBS, and then incubated for 8-12 hours in medium with cytokines [data presented in FIG. 12 using IL-3 (20 ng/ml), IL-6 (20 ng/ml), SCF (100 ng/ml), G-CSF (60 ng/ml), GM-CSF (20 ng/ml)] or without cytokines (data not shown). […] Finally, cells were plated in methylcellulose containing medium (StemCell Technologies) in the presence of cytokines (IL3, IL6, SCF, G- and GM-CSF) for 8-10 days. For FIG. 12 uninfected cells (“Control”), or cells expressing GFP alone (“Empty Vector”), or cells expressing GFP and PML-RAR (“PML-RAR”) were used. 8 days after plating in methylcellulose, the total number of colonies was measured.

[4] = tested on: MDA-MB453 breast carcinoma cells; assay: MTT cell viability assay; format: cell-based, Human; settings: 70 h
Protocol: (§1) Human MDA-MB468, MDA-MB453 and SKBR3 breast carcinoma cells and A431 squamous cell carcinoma cells were maintained in Dulbecco's modified Eagle's medium (DMEM, BioWhittaker, Verviers, Belgium) supplemented with 10% heat inactivated fetal bovine serum (FBS), 2 mM L-glutamine, 100 units/ml penicillin, and 100 μg/ml streptomycin.
(§2) Tumor cells were seeded in 96 well plates at a density of 1×10^4 cells/well in normal growth medium. […] Control cells were grown in the absence of valproic acid or antibodies. 10 μl of 10 mg/ml 3-(4,5-dimethylthiazole-2-yl)-2,5 diphenyltetrazolium bromide (MTT) (Sigma, Deisenhofen, Germany) in PBS were added to each well and the cells were incubated for another 3 h. Cells were lysed by the addition of 90 μl of lysis buffer (20% SDS in 50% dimethyl formamide, pH 4.7). After solubilization of the formazan product, the absorption at 590 nm was determined in a microplate reader (Dynatech, Denkendorf, Germany) and the relative amount of viable cells in comparison to cells cultured without the addition of valproic acid or antibodies was calculated.

[5] = tested on: MDA-MB468 breast carcinoma cells; assay: MTT cell viability assay; format: cell-based, Human
Protocol: as §1, §2

[6] = tested on: HCT-116 colon cancer cells; assay: cell counts and propidium iodide cell cycle/apoptosis analysis; format: cell-based, human
Protocol: For FIG. 14 cells were seeded in 6 well culture dishes at 100000 cells/well. The day after, they were treated with the indicated drugs (5-FU: 2 μM 5-Fluoruracile; AD: 20 ng/ml adriamycin; IT: 3 μM irinothecan), and then cultured for further 48 hours. Cells were counted at 24 h and 48 h after treatment. All of the assays have been performed in triplicate.
For FIG. 15 cells were seeded in 6 well culture dishes at 100000 cells/well. […] (A), results of triplicate counts of viable cells. (B), cells were stained with propidium iodide after permeabilization and fixation. Results of a cell cycle analysis are presented as percentage (%) of cells in G1, S, G2+M, and sub-G1 (apoptotic cells): all of the assays have been performed in triplicate.
(A), results of triplicate counts of viable cells. (B), cells were stained with propidium iodide after permeabilization and fixation. Results of a cell cycle analysis are presented as percentage (%) of apoptotic cells: all of the assays have been performed in triplicate.
For FIG. 17 cells were seeded in 10 cm culture dishes (1 million cells/dish). […] The day after, they were treated with the following drugs: 5-FU (panel A), AD (B), or IT (C), at the concentrations as indicated for FIG. 14. Cells were analyzed at the day of treatment, 24 h, and 48 h following treatment. Upper panels, results of triplicate counts of viable cells. Lower panels, cells were stained with propidium iodide after permeabilization and fixation. Results of a cell cycle analysis are presented as percentage (%) of apoptotic cells: all of the assays have been performed in triplicate.

CCCC(CCC)C(=O)O [VPA, 2-propylpentanoic acid]
number of colonies ([1]; VPA at higher concentrations (>3 mM), most likely induction of cell death, data not shown): reduction in the number of colonies
number of Mac-1+ cells and number of colonies ([1]; VPA up to concentrations of 1 mM): did not cause significant changes
differentiation of control cells ([1]; VPA with cytokines): did not affect differentiation
differentiation block imposed by PML-RAR (Mac-1) [2]: almost completely reverted the differentiation block
X-ray sensitivity [3]: slightly decreased the sensitivity
cell viability, combination treatment ([4]; 3 mM VPA + 2 μg/ml Herceptin): synergistic reduction of cell viability
cell viability ([4]; single reagent, valproic acid 3 mM, Herceptin 2 μg/ml): inhibit the viability
cell viability, combination treatment ([5]; 3 mM VPA + 2 μg/ml c225, 70 h): synergistic reduction of cell viability
cell viability ([5]; single reagent, 70 h, valproic acid 3 mM, c225 2 μg/ml): inhibit the viability
cell growth ([6]; 5-FU 2 μM in combination with VPA 1 mM, 72 hours): strong synergistic reduction in cell growth
apoptosis ([6]; 5-FU 2 μM in combination with VPA 1 mM, 72 hours, vs 5-FU alone): much higher levels of apoptosis
apoptosis ([6]; VPA 1 mM pre-treatment three days, then VPA+AD (20 ng/ml) up to 48 hours): dramatic synergistic enhancement of apoptosis
apoptosis ([6]; VPA 1 mM pre-treatment three days, then VPA+FU (2 μM) up to 48 hours): dramatic synergistic enhancement of apoptosis
apoptosis ([6]; VPA 1 mM pre-treatment three days, then VPA+IT (3 μM) up to 48 hours): dramatic synergistic enhancement of apoptosis
apoptosis ([6]; VPA alone, up to one week): did not induce apoptosis
cell number ([6]; VPA alone, up to one week): only minimally affected cell number
